Test results published in paper PMC10916560 (Food Science & Nutrition, 2023).
Entries after “also recorded” stand apart in the source; their conditions may differ. Read-outs that look alike come from different tables or passages of the source.

Legend:
[1] = ABTS radical scavenging activity; assay type: biochemical; conditions: 0.2 mg/mL; mean ± SD, n = 3
Experimental: ABTS also forms a relatively stable free‐radical that removes color in its non‐radical form (Shirwaikar et al., [2006]). Spectrophotometric analysis of ABTS˙^+ scavenging activity was determined according to the Re method. In this method, the sample is added to the previously formed ABTS radical solution, and the amount of ABTS˙^+ remaining after a fixed time is spectrophotometrically at 734 nm. […] The absorbance was recorded 30 min after mixing, and the percentage of radical scavenging was calculated for each concentration compared to the blank sample without scavenger (Necip & Durgun, [2022]; Re et al., [1999]).

[2] = biological target: AChE from electrophorus electricus (Electrophorus electricus, UniProt O42275); test: biochemical
Experimental: Briefly, 50 μL of 5,5′‐dithio‐bis(2‐nitro‐benzoic) acid compound (DTNB) and 100 μL of Tris–HCl solution (1 M, pH 8.0) and 50 μL AChE from electrophorus electricus (5.32 × 10^−3 U) solution was incubated and stirred at 30°C for 15 min. Finally, the reaction was started by adding 50 μL of acetylthiocholine iodide (AChI), which was used as a substrate. Enzymatic hydrolysis of the substrate was recorded spectrophotometrically at a wavelength of 412 nm (Işık et al., [2020]; Wright & Plummer, [1973]). […] Percent inhibition values and IC50 values were determined using a graph (Kilic et al., [2020]).

[3] = FRAP metal reduction assay; assay type: biochemical; conditions: for metal reduction capacity, FRAP (in words): 0.2 mg/mL, Figure 5; for metal-reducing capacity (in words): FRAP and CUPRAC, statement in discussion
Experimental: (§1) The ferric cyanide (Fe^3+) reducing antioxidant power (FRAP) assay was performed using the modified method of the previously described Oyaizu method (Oyaizu, [1986]). The complex is formed when the method is reduced to the ferrous (Fe^2+) ion to ferric tripyridyl triazene (Fe^3+‐TPTZ) complex at 700 nm. It is based on the spectrophotometric measurement of the complex. The reduction capacity for cupric ions (Cu^2+) was determined by cupric ions reducing assay (CUPRAC) as previously described. A volume of 0.25 mL neocuproine (7.5 mM) in ethanol, 0.25 mL NH4Ac (1 M), and 0.25 mL CuCl2 (0.01 M) were mixed with isolated compounds, PWE, and different amounts of standards (10, 20, and 40 μg/mL).

[4] = DPPH radical scavenging activity; assay type: biochemical; conditions: for DPPH radical scavenging activity: mean ± SD, n = 3; for free-radical scavenging activity (DPPH and ABTS): 0.2 mg/mL (200 μg/mL)
Experimental: The DPPH scavenging activities of PWE and isolated compounds were determined according to the method described by Blois ([1958]). In the method, the stable DPPH radical is removed by the free‐radical scavenging activity of the sample. […] Then, the prepared DPPH solution (1 mL, […]) was added, followed by incubation for 30 min in the dark. After incubation, the DPPH elimination activity of the sample was measured spectrophotometrically (Necip et al., [2021]).

[5] = CUPRAC cupric ions reducing assay; assay type: biochemical; conditions: 0.2 mg/mL, Figure 5
Experimental: as §1

[6] = ref El-Hady et al., 2013; cited from earlier work
[7] = tested on: AChE; conditions: read-out: AChE IC50; ref El-Hady et al., 2013; cited from earlier work

Sequence of AChE from electrophorus electricus (O42275 24-633): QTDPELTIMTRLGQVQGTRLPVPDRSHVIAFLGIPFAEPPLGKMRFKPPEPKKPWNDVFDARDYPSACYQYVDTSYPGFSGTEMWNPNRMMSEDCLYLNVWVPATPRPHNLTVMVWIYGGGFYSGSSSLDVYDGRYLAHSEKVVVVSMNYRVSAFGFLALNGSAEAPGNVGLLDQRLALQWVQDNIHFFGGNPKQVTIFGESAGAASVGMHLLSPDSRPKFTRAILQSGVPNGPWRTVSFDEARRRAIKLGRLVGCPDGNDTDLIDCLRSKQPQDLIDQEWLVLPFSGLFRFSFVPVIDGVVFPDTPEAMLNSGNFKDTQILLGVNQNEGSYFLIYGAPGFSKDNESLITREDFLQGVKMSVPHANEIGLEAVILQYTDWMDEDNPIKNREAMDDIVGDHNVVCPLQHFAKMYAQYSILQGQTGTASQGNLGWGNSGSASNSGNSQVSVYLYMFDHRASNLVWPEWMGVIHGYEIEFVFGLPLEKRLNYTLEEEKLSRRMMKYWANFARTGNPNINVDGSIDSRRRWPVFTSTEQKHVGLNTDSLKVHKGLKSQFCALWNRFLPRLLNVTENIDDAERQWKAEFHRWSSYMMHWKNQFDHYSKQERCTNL

| SMILES | ABTS radical scavenging activity [1] [%] | IC50 [2] [µM] | DPPH radical scavenging activity ([4]; 0.2 mg/mL) | further results |
| --- | --- | --- | --- | --- |
| COc1cc2ccc(=O)oc2c(O)c1O [Fraxetin, fraxetin] | 87.44 ± 3.8 | 730 ± 40 | 81.11 ± 1.7% | metal reduction capacity, FRAP (in words) [3]: moderate metal reduction capacity; metal-reducing capacity (in words) [3]: high metal‐reducing capacity; radical scavenging activity (in words) ([4]; DPPH and ABTS, 0.2 mg/mL): highest radical scavenging activities; free-radical scavenging activity (DPPH and ABTS) ([4]; DPPH and ABTS): over 60%; metal reduction capacity, CUPRAC (in words) [5]: metal reduction capacity close to the standards |
| O=c1c(O)c(-c2ccccc2)oc2cc(O)cc(O)c12 [Galangin, galangin] | 62.01 ± 1.9 | 790 ± 20 | 44.73 ± 1.8% | metal reduction capacity, FRAP (in words) [3]: high metal reduction activity; metal-reducing capacity (in words) [3]: high metal‐reducing capacity; free-radical scavenging activity (DPPH and ABTS) ([4]; DPPH and ABTS): over 60%; metal reduction capacity, CUPRAC (in words) ([5]; listed as 15): high metal reduction activity; also recorded: metal reduction capacity close to the standards |
| Cc1cc(C(C)(C)C)c(O)c(C(C)(C)C)c1 [BHT, reference compound] | 58.06 ± 2.4 | – | 51.57 ± 1.5% | – |
| O=C1C[C@@H](c2ccccc2)Oc2cc(O)cc(O)c21 [Pinocembrin, pinocembrin] | 26.32 ± 1.3 | – | Inactive | IC50 ([2]; isolated compounds, read-out: AChE (IC50)): 1100 ± 40 µM |
| CC(C)=CCC[C@@H](C)[C@H]1CC[C@@]2(C)[C@@H]3CC[C@H]4C(C)(C)[C@@H](O)CC[C@@]45C[C@@]35CC[C@]12C [3β‐cycloartenol] | – | – | – | free-radical scavenging activity [6]: 59%; IC50 [7]: 3.6 ± 0.1 µM |
| O=c1cc(-c2ccc(O)cc2)oc2cc(O)cc(O)c12 [Apigenin, apigenin] | 59.41 ± 1.5 | 710 ± 30 | 79.02 ± 2.2% | metal reduction capacity, FRAP (in words) [3]: moderate metal reduction capacity; metal-reducing capacity (in words) [3]: high metal‐reducing capacity; free-radical scavenging activity (DPPH and ABTS) ([4]; DPPH and ABTS): over 60%; metal reduction capacity, CUPRAC (in words) [5]: metal reduction capacity close to the standards |
| COc1cc(O)c2c(=O)cc(-c3ccc(O)cc3)oc2c1 [Genkwanin, genkwanin] | 8.95 ± 0.8 | 1150 ± 30 | Inactive | – |
| O=C1c2c(O)cc(O)cc2O[C@H](c2ccccc2)[C@H]1O [Pinobanksin, pinobanksin] | 15.63 ± 0.9 | 450 ± 10 | 3.55 ± 0.6% | – |
| COc1ccc(O)c(C(C)(C)C)c1 [BHA, reference compound] | 93.62 ± 3.6 | – | 80.20 ± 2.9% | – |
| O=c1cc(-c2ccccc2)oc2cc(O)cc(O)c12 [Chrysin, chrysin] | 4.35 ± 0.7 | 640 ± 20 | Inactive | – |
| Cc1c(C)c2c(c(C)c1O)CCC(C)(C(=O)O)O2 (stereo not drawn) [Trolox, trolox, reference compound] | 89.99 ± 3.2 | – | 90.37 ± 3.8% | – |
